Values of other authors as cited in US11840582B2, “Synthesis method of cyclosporine derivatives” (Peking University Shenzhen Graduate School, priority 2021, dated 2023).
Non-standard residues stand in square brackets, D forms with d. Residues, ends and D or L forms follow the SMILES beside them. NMeThr(4R-Me,4-(CH2)6NHAc) = CN[C@H](C(=O)O)[C@H](O)[C@H](C)CCCCCCNC(C)=O; NMeL = CN[C@@H](CC(C)C)C(=O)O; NMeV = CN[C@H](C(=O)O)C(C)C; dNMeA = CN[C@H](C)C(=O)O; Abu = CC[C@H](N)C(=O)O

Test system: cyclophilin proteins (CyP), including cyclophilin protein A, cyclophilin protein B, cyclophilin protein H and cyclophilin protein G

IC50: 1 to 7 nM
potency relative to cyclosporine A inhibiting the activity of cyclophilin protein: ≤ 13 times
Structure (SMILES): CC[C@@H]1NC(=O)[C@H]([C@H](O)[C@H](C)CCCCCCNC(C)=O)N(C)C(=O)[C@H](C(C)C)N(C)C(=O)[C@H](CC(C)C)N(C)C(=O)[C@H](CC(C)C)N(C)C(=O)[C@@H](C)NC(=O)[C@H](C)NC(=O)[C@H](CC(C)C)N(C)C(=O)[C@H](C(C)C)NC(=O)[C@H](CC(C)C)N(C)C(=O)[C@@H](C)N(C)C1=O [CRV431] (cyclo(A[dA][NMeL][NMeL][NMeV][NMeThr(4R-Me,4-(CH2)6NHAc)][Abu][dNMeA][NMeL]V[NMeL]))
